According to patent publication US10857246B2, “Nuclear imaging and radiotherapeutics agents targeting carbonic anhydrase IX and uses thereof” (THE JOHNS HOPKINS UNIVERSITY, priority 2015, dated 2020):
“And” between values parts separate entries of the source, which are not always exact repeats. Equal entries are not always repeated.

System: CAIX-expressing SK-RC-52 tumors
Assay: Biodistribution in mice bearing SK-RC-52 xenografts
Format: in vivo
Details: for Biodistribution Kidney / Biodistribution Muscle / Biodistribution Small intestine / Tumor/Kidney ratio / Tumor/Muscle ratio / Biodistribution Bladder / Biodistribution Blood / Biodistribution Brain / Biodistribution Fat / Biodistribution Heart / Biodistribution Liver / Biodistribution Lung / Biodistribution Pancreas / Biodistribution Spleen / Biodistribution Stomach / Biodistribution Tumor / Tumor/Blood ratio: 740 kBq i.v.
Description: Animal experiments were performed in accordance with protocols approved by the Johns Hopkins Animal Care and Use Committee (ACUC). Six-week-old female NOD/SCID mice were purchased from the Animal Resource Core of the Sidney Kimmel Comprehensive Cancer Center of Johns Hopkins and were subcutaneously injected in the lower left flank or upper right flank with 1×10^6 SK-RC-52 cells in RPMI 1640 GlutaMAX™ media (Life Technologies, Frederick, Md.) supplemented with 1% fetal bovine serum (FBS). Mice were monitored for tumor size and used for SPECT/CT imaging when the size of the tumor reached 100 mm^3.
Mice bearing SK-RC-52 xenografts at lower left flank were injected intravenously with 740 kBq (20 μCi) of [^111In]XYIMSR-01, or [^177Lu]XYIMSR-01 in 200 μL of PBS. For competitive blocking, same tumor bearing mice were injected with 740 kBq (20 μCi) of [^111In]XYIMSR-01 and 200 nmole of 8 in 200 μL of PBS. At 1 h, 4 h, 8 h, 24 h and 48 h post-injection, mice were sacrificed by cervical dislocation and the blood was immediately collected by cardiac puncture. Heart, lungs, pancreas, spleen, fat, brain, muscle, small intestines, liver, stomach, kidney, urinary bladder, and tumor were collected. Each organ was weighed and the tissue radioactivity was measured with an automated gamma counter (1282 Compugamma CS, Pharmacia/LKBNuclear, Inc., Mt. Waverly, Vic. Australia). The percentage of injected dose per gram of tissue (% ID/g) was calculated by comparison with samples of a standard dilution of the initial dose. All measurements were corrected for radioactive decay.
Data were expressed as mean±standard deviation (SD). Prism software (GraphPAD, San Diego, Calif.) was used to determine statistical significance. Statistical significance was calculated using a paired t test. P-values <0.0001 were considered significant.
Mice bearing SK-RC-52 xenografts within the lower left flank were injected intravenously with 740 kBq (20 μCi) of [Al^18F]XYIMSR-04 in 200 μL of PBS. At specific 1 hour time point mentioned in the paper, mice (n=5) were sacrificed by cervical dislocation and the blood was immediately collected by cardiac puncture. Heart, lungs, pancreas, spleen, fat, brain, muscle, small intestines, liver, bone, stomach, kidney, urinary bladder, and tumor were collected. Each organ was weighed and the tissue radioactivity was measured with an automated gamma counter (1282 Compugamma CS, Pharmacia/LKBNuclear, Inc., Mt. Waverly, Vic. Australia). The percentage of injected dose per gram of tissue (% ID/g) was calculated by comparison with samples of a standard dilution of the initial dose. All measurements were corrected for radioactive decay. Data were expressed as mean±standard deviation (SD). Prism software (GraphPAD, San Diego, Calif.) was used to determine statistical significance. Statistical significance was calculated using a paired t test. P-values <0.0001 were considered significant.
Mice bearing SK-RC-52 xenografts within the upper right flank were injected intravenously with 740 kBq (20 μCi) of [^64Cu]XYIMSR-06 in 200 μL of PBS. For in vivo competition (binding specificity) studies, tumor-bearing mice were injected with 740 kBq (20 μCi) of [^64Cu]XYIMSR-06 and 200 nmole of 8 in 200 μL of PBS concurrently. At specific times after injection (1 h, 4 h, 8 h and 24 h), mice (n=5) were sacrificed by cervical dislocation with blood immediately collected by cardiac puncture. Heart, lungs, pancreas, spleen, fat, brain, muscle, small intestines, liver, stomach, kidney, urinary bladder, and tumor were also collected. Each organ was weighed and the tissue radioactivity was measured with an automated gamma counter (1282 Compugamma CS, Pharmacia/LKBNuclear, Inc., Mt. Waverly, Vic. Australia). The percentage of injected dose per gram of tissue (% ID/g) was calculated by comparison with samples of a standard dilution of the initial dose. All measurements were corrected for radioactive decay. Data were expressed as mean±standard deviation (SD). […]

CC(CCC(=O)N[C@@H](CC(=O)N[C@@H](CC(=O)N[C@@H](CCCCn1cc(CCCC(=O)Nc2nnc(S(N)(=O)=O)s2)nn1)C(=O)NCCOCCOCCNC(=O)CN1CCN2CCN(CC1)CC(=O)[O][Al]([18F])[O]C(=O)C2)C(=O)O)C(=O)O)(c1ccc(O)cc1)c1ccc(O)cc1 [[Al^18F]XYIMSR-04]
Biodistribution Kidney (1 h post-injection): 50.84 ± 2.65 % ID/g
Biodistribution Muscle (1 h post-injection): 1.74 ± 0.58 % ID/g
Biodistribution Small intestine (1 h post-injection): 9.59 ± 1.04 % ID/g
Tumor/Kidney ratio (1 h post-injection): 0.28 and 0.28 ± 0.03
Tumor/Muscle ratio (1 h post-injection): 9.74 and 9.74 ± 2.9

CC(CCC(=O)N[C@@H](CC(=O)N[C@@H](CC(=O)N[C@@H](CCCCn1cc(CCCC(=O)Nc2nnc(S(N)(=O)=O)s2)nn1)C(=O)NCCOCCOCCNC(=S)Nc1ccc(CC2CN(CC(=O)[O-])CCN(CC(=O)[O-])CCN2CC(=O)O)cc1)C(=O)O)C(=O)O)(c1ccc(O)cc1)c1ccc(O)cc1.[64Cu+2] (some centres unmarked) [[^64Cu]XYIMSR-06]
Biodistribution Bladder (1 h post-injection): 11.12 % ID/g
Biodistribution Blood (1 h post-injection): 0.66 % ID/g
Biodistribution Brain (1 h post-injection): 1.46 % ID/g
Biodistribution Fat (1 h post-injection): 0.80 % ID/g
Biodistribution Heart (1 h post-injection): 3.41 % ID/g
Biodistribution Kidney (1 h post-injection): 33.65 % ID/g
Biodistribution Liver (1 h post-injection): 3.25 % ID/g
Biodistribution Lung (1 h post-injection): 25.52 % ID/g
Biodistribution Muscle (1 h post-injection): 1.28 % ID/g
Biodistribution Pancreas (1 h post-injection): 2.94 % ID/g
Biodistribution Small intestine (1 h post-injection): 7.35 % ID/g
Biodistribution Spleen (1 h post-injection): 0.36 % ID/g
Biodistribution Stomach (1 h post-injection): 14.80 % ID/g
Biodistribution Tumor (1 h post-injection): 14.47 % ID/g
Tumor/Kidney ratio (1 h post-injection): 0.4
Biodistribution Bladder (4 h post-injection): 17.05 % ID/g
Biodistribution Blood (4 h post-injection): 0.33 % ID/g
Biodistribution Brain (4 h post-injection): 0.29 % ID/g
Biodistribution Fat (4 h post-injection): 0.52 % ID/g
Biodistribution Heart (4 h post-injection): 1.78 % ID/g
Biodistribution Kidney (4 h post-injection): 19.99 % ID/g
Biodistribution Liver (4 h post-injection): 2.18 % ID/g
Biodistribution Lung (4 h post-injection): 12.03 % ID/g
Biodistribution Muscle (4 h post-injection): 0.70 % ID/g
Biodistribution Pancreas (4 h post-injection): 1.36 % ID/g
Biodistribution Small intestine (4 h post-injection): 4.15 % ID/g
Biodistribution Spleen (4 h post-injection): 0.24 % ID/g
Biodistribution Stomach (4 h post-injection): 8.19 % ID/g
Biodistribution Tumor (4 h post-injection): 19.31 % ID/g
Tumor/Blood ratio (4 h post-injection): 57.7
Tumor/Kidney ratio (4 h post-injection): 1.0
Tumor/Muscle ratio (4 h post-injection): 29.4
Biodistribution Bladder (8 h + block (200 nmole of 8)): 1.45 % ID/g
Biodistribution Blood (8 h + block (200 nmole of 8)): 0.08 % ID/g
Biodistribution Brain (8 h + block (200 nmole of 8)): 0.04 % ID/g
Biodistribution Fat (8 h + block (200 nmole of 8)): 0.05 % ID/g
Biodistribution Heart (8 h + block (200 nmole of 8)): 0.16 % ID/g
Biodistribution Kidney (8 h + block (200 nmole of 8)): 1.82 % ID/g
Biodistribution Liver (8 h + block (200 nmole of 8)): 0.55 % ID/g
Biodistribution Lung (8 h + block (200 nmole of 8)): 0.77 % ID/g
Biodistribution Muscle (8 h + block (200 nmole of 8)): 0.05 % ID/g
Biodistribution Pancreas (8 h + block (200 nmole of 8)): 0.14 % ID/g
Biodistribution Small intestine (8 h + block (200 nmole of 8)): 0.38 % ID/g
Biodistribution Spleen (8 h + block (200 nmole of 8)): 0.14 % ID/g
Biodistribution Stomach (8 h + block (200 nmole of 8)): 0.69 % ID/g
Biodistribution Tumor (8 h + block (200 nmole of 8)): 2.39 % ID/g
Tumor/Blood ratio (8 h + block (200 nmole of 8)): 32.0
Tumor/Kidney ratio (8 h + block (200 nmole of 8)): 1.3
Tumor/Muscle ratio (8 h + block (200 nmole of 8)): 53.0
Biodistribution Bladder (8 h post-injection): 7.43 % ID/g
Biodistribution Blood (8 h post-injection): 0.13 % ID/g
Biodistribution Brain (8 h post-injection): 0.24 % ID/g
Biodistribution Fat (8 h post-injection): 0.28 % ID/g
Biodistribution Heart (8 h post-injection): 0.65 % ID/g
Biodistribution Kidney (8 h post-injection): 8.14 % ID/g
Biodistribution Liver (8 h post-injection): 0.99 % ID/g
Biodistribution Lung (8 h post-injection): 4.64 % ID/g
Biodistribution Muscle (8 h post-injection): 0.21 % ID/g
Biodistribution Pancreas (8 h post-injection): 0.47 % ID/g
Biodistribution Small intestine (8 h post-injection): 1.98 % ID/g
Biodistribution Spleen (8 h post-injection): 0.18 % ID/g
Biodistribution Stomach (8 h post-injection): 4.02 % ID/g
Biodistribution Tumor (8 h post-injection): 16.74 % ID/g
All other tumor/organ ratios (24 h): > 10.0
Biodistribution Bladder (24 h + block (200 nmole of 8)): 0.45 % ID/g
Biodistribution Blood (24 h + block (200 nmole of 8)): 0.01 % ID/g
Biodistribution Brain (24 h + block (200 nmole of 8)): 0.02 % ID/g
Biodistribution Fat (24 h + block (200 nmole of 8)): 0.01 % ID/g
Biodistribution Heart (24 h + block (200 nmole of 8)): 0.08 % ID/g
Biodistribution Kidney (24 h + block (200 nmole of 8)): 0.48 % ID/g
Biodistribution Liver (24 h + block (200 nmole of 8)): 0.42 % ID/g
Biodistribution Lung (24 h + block (200 nmole of 8)): 0.29 % ID/g
Biodistribution Muscle (24 h + block (200 nmole of 8)): 0.04 % ID/g
Biodistribution Pancreas (24 h + block (200 nmole of 8)): 0.07 % ID/g
Biodistribution Small intestine (24 h + block (200 nmole of 8)): 0.19 % ID/g
Biodistribution Spleen (24 h + block (200 nmole of 8)): 0.11 % ID/g
Biodistribution Stomach (24 h + block (200 nmole of 8)): 0.29 % ID/g
Biodistribution Tumor (24 h + block (200 nmole of 8)): 1.20 % ID/g
Tumor/Blood ratio (24 h + block (200 nmole of 8)): 27.1
Tumor/Kidney ratio (24 h + block (200 nmole of 8)): 2.4
Tumor/Muscle ratio (24 h + block (200 nmole of 8)): 49.0
Biodistribution Bladder (24 h post-injection): 0.34 % ID/g
Biodistribution Blood (24 h post-injection): 0.00 % ID/g
Biodistribution Brain (24 h post-injection): 0.13 % ID/g
Biodistribution Fat (24 h post-injection): 0.03 % ID/g
Biodistribution Heart (24 h post-injection): 0.12 % ID/g
Biodistribution Kidney (24 h post-injection): 0.90 % ID/g
Biodistribution Liver (24 h post-injection): 0.38 % ID/g
Biodistribution Lung (24 h post-injection): 1.27 % ID/g
Biodistribution Muscle (24 h post-injection): 0.02 % ID/g
Biodistribution Pancreas (24 h post-injection): 0.21 % ID/g
Biodistribution Small intestine (24 h post-injection): 0.47 % ID/g
Biodistribution Spleen (24 h post-injection): 0.09 % ID/g
Biodistribution Stomach (24 h post-injection): 0.65 % ID/g
Biodistribution Tumor (24 h post-injection): 6.2 % ID/g and 6.23 % ID/g
Tumor/Blood ratio (24 h post-injection): 142.6
Tumor/Muscle ratio (24 h post-injection): 261.3
Tumor uptake on co-injection of 200 nmole of 8 (mouse, in vivo): blocked tumor uptake
Radiotracer uptake within liver (within 24 h): no significant radiotracer uptake within liver
